Paper PMC4444023 (PLoS ONE, 2015)
Where “and” joins values, the source holds several entries; their conditions need not be identical. Equal values may be shown once.

Columns and labels:
[1] = test system: rat primary hippocampal neurons; test: Hippocampal neuronal survival (Hoechst 33342); format: cell-based
Experimental: All animal procedures were approved by the Johns Hopkins University Animal Care and Use Committee. Primary hippocampal neurons were prepared from day 18 decapitated embryos of Sprague-Dawley rats following previously described methods. Cells were seeded on polyethyleneimine (PEI)-coated slides in 12-well plates and cultured between 14–21 days. […] After 18 h, cells were stained with 50 μg/ml Hoeschst 33342 for 20 min and then fixed with 4% paraformaldehyde for 30 min. The number of living and apoptotic cells was determined by fluorescence microscopy. A minimum of 500 cells were counted per treatment condition. Results were normalized to control untreated cells and were representative of at least two independent experiments conducted in triplicate. Statistical evaluation of the data was done by Student’s t-test.

human nSMase2 [2] = target: T1, human nSMase2 (Homo sapiens, UniProt Q9NY59); test: 14C-SM confirmatory direct activity assay; format: biochemical; parameters: Full length human nSMase2 cDNA with a C-terminal Flag tag; host or cells: HEK293, stably transfected; crude cell lysate used as enzyme; conditions: for human nSMase2 inhibitory activity of analog vs cambinol: SAR; for IC50: [14C]-SM direct activity assay, human recombinant enzyme
T1 sequence (Q9NY59 1-655): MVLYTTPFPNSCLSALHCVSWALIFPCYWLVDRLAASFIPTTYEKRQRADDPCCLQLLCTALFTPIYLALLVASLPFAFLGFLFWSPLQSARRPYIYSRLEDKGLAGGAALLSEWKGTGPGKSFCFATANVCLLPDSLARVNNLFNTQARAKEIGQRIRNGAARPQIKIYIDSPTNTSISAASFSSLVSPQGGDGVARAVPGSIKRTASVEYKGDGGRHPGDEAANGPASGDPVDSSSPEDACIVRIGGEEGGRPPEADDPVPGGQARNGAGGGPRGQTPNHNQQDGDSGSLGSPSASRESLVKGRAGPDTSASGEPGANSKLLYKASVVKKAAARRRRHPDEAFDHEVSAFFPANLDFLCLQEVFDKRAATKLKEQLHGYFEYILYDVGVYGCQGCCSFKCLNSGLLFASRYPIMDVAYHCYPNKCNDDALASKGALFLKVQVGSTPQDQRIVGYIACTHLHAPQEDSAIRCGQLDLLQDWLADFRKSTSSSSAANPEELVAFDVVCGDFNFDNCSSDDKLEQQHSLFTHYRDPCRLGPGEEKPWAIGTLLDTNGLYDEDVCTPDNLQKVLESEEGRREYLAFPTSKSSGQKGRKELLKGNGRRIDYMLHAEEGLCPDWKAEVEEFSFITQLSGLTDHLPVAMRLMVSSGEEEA
Experimental: This assay was dependent on the direct hydrolysis of ^14C-labeled SM (^14C N-methyl groups in the phosphorylcholine) by human nSMase2. Optimization of assay conditions was accomplished according to the methods of Barbone et al.. Briefly, bovine [N-methyl-^14C]-sphingomyelin (specific activity […], Perkin Elmer) and phosphatidylinositol (Avanti Polar Lipids) were evaporated to dryness under a stream of nitrogen and resuspended at an equimolar concentration of 0.1 mM in water with 0.5% Triton X-100 (Sigma). The solution was vortexed for 30 min and then sonicated for 30 min. Assay conditions were as follows: 50 μl total volume per reaction, consisting of 20 μM SM, reaction buffer (100 mM Tris-HCl pH 7.5, 80 mM MgCl2, 0.1% Triton X-100); 10 μl cell lysate containing recombinant human nSMase2 (0.5–1 μg protein/assay) and 5 μl of compound in reaction buffer containing 10% DMSO. After 1 h incubation at 37°C the reaction was terminated by the addition of 30 μl of water and 175 μl of chloroform/methanol (2:1, v:v), followed by vigorous vortexing. Tubes were centrifuged for 5 min at 10,000 xg at room temperature to separate the organic bottom phase containing labeled SM and the aqueous upper phase containing ^14C-labeled-phosphorylcholine. An aliquot (50 μl) of the upper phase was transferred to a vial with 10 ml of scintillant and counted for 2 min on a Beckman LS-6000IC scintillation counter. Enzyme activity was directly proportional to the disintegrations per min (dpm) resulting from the generation of ^14C-phosphorylcholine.

human nSMase2 [3] = target: T1, human nSMase2; test: Fluorescence (Amplex red coupled) nSMase2 activity assay; format: biochemical; parameters: Full length human nSMase2 cDNA with a C-terminal Flag tag; crude cell lysate used as enzyme
Experimental: The production of the latter was coupled to a dephosphorylation reaction catalyzed by alkaline phosphatase (4 U/ml) to produce choline, followed by oxidation of choline by choline oxidase (0.1 U/ml) to produce betaine and H2O2, which in the presence of horseradish peroxidase (HRP, 1U/ml) and 50 μM Amplex red, generates the fluorescent molecule resorufin (Life Technologies). Substrate stock solution was prepared in 2% Triton X-100, vortexed and sonicated for 30 min. Reactions were carried out for 1 h at 37°C in 100 mM Tris-HCl pH 7.4, 10 mM MgCl2, 0.2% Triton X-100 and the generation of the fluorescent product was monitored by measuring relative florescence units (RFU) with excitation at 530 nm and emission at 590 nm (Fig 1). This assay was optimized for 384-well format (50 μl total volume per well) based on linearity of the enzymatic activity with respect to time, as well as substrate and enzyme concentrations. […] This fluorescence assay was used for compound screening and IC50 value determinations, based on duplicate eight-point dose response curves.

[4] = test system: rat primary cortical neurons; test: Lipid extraction and ceramide measurements (LC-MS/MS); format: cell-based
Experimental: Primary cortical neurons were prepared from embryonic day 18 Sprague-Dawley rats following previously described methods. […] A crude lipid extract from cortical neurons was obtained using a modified Bligh and Dyer procedure. Ceramide C12:0 (Avanti Polar Lipids) was included as an internal standard. The organic layers were dried in a nitrogen evaporator (Organomation Associates Inc.) and stored at -80°C. Dried organic layers were resuspended in methanol just prior to analysis. The detection and quantitation of individual ceramide species was performed on a high-performance liquid chromatography (HPLC) coupled electrospray ionization triple quadrupole mass spectrometer (API3000, AB Sciex Inc.) using settings similar to those described in previous studies. Samples were handled by a CTC PAL autosampler (LEAP Technologies Inc.) and injected into an HPLC (PerkinElmer) equipped with a reverse phase C18 column (Phenomex). […] The eluted sample was injected into the electrospray ionization source and detection of each ceramide species was conducted by multiple reaction monitoring. Spectral analysis was conducted using MultiQuant (AB Sciex Inc.), individually validated and normalized to the internal standard. Final data for each ceramide species in counts per second was expressed as the ratio of analyte/internal standard.

[5] = 100 ng/ml IL1β 18 h, 10 µM compound
[6] = 100 ng/ml IL1β 18 h, 25 µM compound
[7] = 100 ng/ml TNFα 18 h, 10 µM compound
[8] = 100 ng/ml TNFα 18 h, 25 µM compound
[9] = TNF-a: 100 ng/ml TNF-α for 2 min

Compound: O=c1[nH]c(-c2ccccc2)c(Cc2c(O)ccc3ccccc23)c(=O)[nH]1 [compound 2]
- neuron survival, Mean (normalized to control untreated cells) [1, 5]: 79.08
- neuron survival, Mean (normalized to control untreated cells) [1, 6]: 81.7
- neuron survival, Mean (normalized to control untreated cells) [1, 7]: 76.55
- neuron survival, Mean (normalized to control untreated cells) [1, 8]: 81.8
- %Inhibition (human nSMase2 [2]; Log [compound] -4.0): -11.0% and -13.0%
- %Inhibition (human nSMase2 [2]; Log [compound] -5.0): -11.0% and -12.0%
- %Inhibition (human nSMase2 [2]; Log [compound] -6.0): -2.0% and -3.0%
- %Inhibition (human nSMase2 [2]; Log [compound] -7.0): 3.0% and 0.0%
- %Inhibition (human nSMase2 [2]; Log [compound] -9.0): 4.0%
- %Inhibition (human nSMase2 [2]; Log [compound] -10.0): -1.0% and -2.0%
- human nSMase2 inhibitory activity of analog vs cambinol (human nSMase2 [2]): loss of activity
- IC50 (human nSMase2 [2]): > 100 µM

Compound: O=c1[nH]c(=S)[nH]c(-c2cccc(Cl)c2)c1Cc1c(O)ccc2ccccc12 [compound 8]
- IC50 (human nSMase2 [2]): 7 ± 1 µM

Compound: O=P(O)(O)C(O)(Cn1ccnc1)P(=O)(O)O [zoledronic acid, reference compound]
- neuron survival, Mean (normalized to control untreated cells) [1, 5]: 84.88
- neuron survival, Mean (normalized to control untreated cells) [1, 6]: 85.75
- neuron survival, Mean (normalized to control untreated cells) [1, 7]: 80.07
- neuron survival, Mean (normalized to control untreated cells) [1, 8]: 81.28

Compound: O=c1[nH]c(=S)[nH]c(-c2ccccc2F)c1Cc1c(O)ccc2ccccc12 [compound 9]
- IC50 (human nSMase2 [2]): 6 ± 3 µM

Compound: O=c1cc(-c2ccccc2)[nH]c(=S)[nH]1 [compound 5]
- IC50 (human nSMase2 [2]): > 50 µM
- increase in IC50 value (human nSMase2 [2]; vs cambinol): 10 fold

Compound: O=c1nc(SCc2ccccc2)[nH]c(-c2ccccc2)c1Cc1c(O)ccc2ccccc12 [compound 3]
- human nSMase2 inhibitory activity of analog vs cambinol (human nSMase2 [2]): loss of activity
- IC50 (human nSMase2 [2]): > 50 µM

Compound: phosphatidylserine
- effect on human nSMase2 activity (human nSMase2 [3]; 20 μM SM/PS at equimolar concentration (S5 Fig)): did not significantly affect

Compound: O=c1[nH]c(=S)[nH]c(-c2ccc(Br)cc2)c1Cc1c(O)ccc2ccccc12 [compound 7]
- IC50 (human nSMase2 [2]): 2 ± 1 µM

Compound: Cc1ccccc1-c1[nH]c(=S)[nH]c(=O)c1Cc1c(O)ccc2ccccc12 [compound 6]
- %Inhibition (human nSMase2 [2]; Log [compound] -4.0): 95.0% and 94.0%
- %Inhibition (human nSMase2 [2]; Log [compound] -5.0): 80.0% and 79.0%
- %Inhibition (human nSMase2 [2]; Log [compound] -6.0): 22.0% and 21.0%
- %Inhibition (human nSMase2 [2]; Log [compound] -7.0): 2.0% and 0.0%
- %Inhibition (human nSMase2 [2]; Log [compound] -8.0): -8.0% and -11.0%
- %Inhibition (human nSMase2 [2]; Log [compound] -9.0): -1.0% and -3.0%
- %Inhibition (human nSMase2 [2]; Log [compound] -10.0): -11.0% and -10.0%
- IC50 (human nSMase2 [2]): 3 µM

Compound: TNF-α
- Ceramide d18:1/16:0, ratio analyte/internal standard [4, 9]: 2.626 and 2.724 and 1.914 and 2.181 and 2.47 and 2.215
- Ceramide d18:1/18:0, ratio analyte/internal standard [4, 9]: 9.562 and 9.737 and 7.685 and 8.892 and 9.601 and 8.529
- Ceramide d18:1/20:0, ratio analyte/internal standard [4, 9]: 0.6563 and 0.629 and 0.4932 and 0.6036 and 0.6125 and 0.6685
- Ceramide d18:1/22:0, ratio analyte/internal standard [4, 9]: 0.2034 and 0.2174 and 0.1793 and 0.213 and 0.2196 and 0.1978
- Ceramide d18:1/24:0, ratio analyte/internal standard [4, 9]: 0.2705 and 0.2427 and 0.2002 and 0.2059 and 0.2011 and 0.2312
- Ceramide d18:1/24:1, ratio analyte/internal standard [4, 9]: 0.2934 and 0.2773 and 0.185 and 0.2472 and 0.2529 and 0.2866
- Dihexosylceramides d18:1/16:0, ratio analyte/internal standard [4, 9]: 0.0212 and 0.02618 and 0.02908 and 0.01607 and 0.02926 and 0.02318
- Dihexosylceramides d18:1/18:0, ratio analyte/internal standard [4, 9]: 0.1307 and 0.1534 and 0.1151 and 0.09786 and 0.1336 and 0.132
- Dihydroceramides d18:0/18:0, ratio analyte/internal standard [4, 9]: 0.1552 and 0.1446 and 0.1353 and 0.136 and 0.1435 and 0.1236
- Monohexosylceramides d18:1/16:0, ratio analyte/internal standard [4, 9]: 1.65E-01 and 1.78E-01 and 1.43E-01 and 1.25E-01 and 1.46E-01 and 1.28E-01
- Monohexosylceramides d18:1/18:0, ratio analyte/internal standard [4, 9]: 8.33E-01 and 9.27E-01 and 8.86E-01 and 8.09E-01 and 8.11E-01 and 9.45E-01
- Monohexosylceramides d18:1/20:0, ratio analyte/internal standard [4, 9]: 1.68E-01 and 1.71E-01 and 1.46E-01 and 1.34E-01 and 1.36E-01
- Monohexosylceramides d18:1/22:0, ratio analyte/internal standard [4, 9]: 6.26E-02 and 5.07E-02 and 4.08E-02 and 5.38E-02 and 5.08E-02 and 5.16E-02
- Monohexosylceramides d18:1/24:0, ratio analyte/internal standard [4, 9]: 4.46E-02 and 4.59E-02 and 3.01E-02 and 3.48E-02 and 3.50E-02 and 3.93E-02
- Monohexosylceramides d18:1/24:1, ratio analyte/internal standard [4, 9]: 9.28E-02 and 9.45E-02 and 8.80E-02 and 6.42E-02 and 8.57E-02 and 6.27E-02
- effect on long chain ceramide levels ([4]; rat primary cortical neurons): rapid increase

Compound: C[S+](C)[O-] [DMSO]
- human nSMase2 activity (human nSMase2 [3]; 0.1% DMSO): 2703.2500 RFU and 2871.2510 RFU and 2454.0980 RFU and 2595.8260 RFU
- human nSMase2 activity (human nSMase2 [3]; 1% DMSO): 2256.2870 RFU and 2299.5150 RFU and 2360.8330 RFU and 2629.8220 RFU
- human nSMase2 activity (human nSMase2 [3]; 10% DMSO): 1706.1510 RFU and 1610.6720 RFU and 1424.4530 RFU and 1442.3390 RFU
- inhibition of human nSMase2 activity (human nSMase2 [3]; DMSO up to 1%): no significant inhibition

Compound: sphingomyelin [SM]
- enzymatic activity (human nSMase2 [3]; [SM] 3.91 µM): 212.26 RFU
- enzymatic activity (human nSMase2 [3]; [SM] 7.81 µM): 311.45 RFU
- enzymatic activity (human nSMase2 [3]; [SM] 15.63 µM): 459.12 RFU
- enzymatic activity (human nSMase2 [3]; [SM] 31.25 µM): 722.04 RFU
- enzymatic activity (human nSMase2 [3]; [SM] 62.50 µM): 1075.56 RFU
- enzymatic activity (human nSMase2 [3]; [SM] 125.00 µM): 1331.12 RFU
- enzymatic activity (human nSMase2 [3]; [SM] 250.00 µM): 1431.87 RFU
- enzymatic activity (human nSMase2 [3]; [SM] 500.00 µM): 1408.02 RFU
